The kinase profiling compilation of Christmann-Franck et al. (2016)

Experiments:
Assay in all cases: radiometric filter-binding kinase assay
[1] = molecular target: MAPKAPK2 (human) (UniProt P49137)
[2] = molecular target: CSNK1D (human) (UniProt P48730)
[3] = molecular target: RPS6KA5 KD1 KD2 (human) (UniProt O75582)
[4] = molecular target: MAPK15 (human) (UniProt Q8TD08)
[5] = molecular target: MAPK12 (human) (UniProt P53778)
[6] = molecular target: CAMKK2 (human) (UniProt Q96RR4)
[7] = molecular target: PLK1 (human) (UniProt P53350)
[8] = molecular target: IGF1R (human) (UniProt P08069); conditions: compound 0.1 µM
[9] = molecular target: IKBKE (human) (UniProt Q14164)
[10] = molecular target: CHEK1 (human) (UniProt O14757)
[11] = molecular target: PAK7 (human) (UniProt Q9P286)
[12] = molecular target: PIM3 (human) (UniProt Q86V86)
[13] = tested on: SGK1 (human), O00141 [S422D]
[14] = molecular target: DYRK1A (human) (UniProt Q13627)
[15] = molecular target: PKN2 (human) (UniProt Q16513)
[16] = molecular target: MST4 (human) (UniProt Q9P289)
[17] = molecular target: MAPK3 (human) (UniProt P27361)
[18] = molecular target: NEK2 (human) (UniProt P51955)
[19] = molecular target: RPS6KA3 KD1 KD2 (human) (UniProt P51812)
[20] = tested on: AKT2 (human), P31751 [S474D]
[21] = molecular target: PAK6 (human) (UniProt Q9NQU5)
[22] = molecular target: SRPK1 (human) (UniProt Q96SB4)
[23] = molecular target: MAPK14 (human) (UniProt Q16539)
[24] = molecular target: NEK6 (human) (UniProt Q9HC98)
[25] = molecular target: PAK4 (human) (UniProt O96013)
[26] = molecular target: PIM2 (human) (UniProt Q9P1W9)

Chain of PAK6 (human) (Q9NQU5 whole entry, looked up): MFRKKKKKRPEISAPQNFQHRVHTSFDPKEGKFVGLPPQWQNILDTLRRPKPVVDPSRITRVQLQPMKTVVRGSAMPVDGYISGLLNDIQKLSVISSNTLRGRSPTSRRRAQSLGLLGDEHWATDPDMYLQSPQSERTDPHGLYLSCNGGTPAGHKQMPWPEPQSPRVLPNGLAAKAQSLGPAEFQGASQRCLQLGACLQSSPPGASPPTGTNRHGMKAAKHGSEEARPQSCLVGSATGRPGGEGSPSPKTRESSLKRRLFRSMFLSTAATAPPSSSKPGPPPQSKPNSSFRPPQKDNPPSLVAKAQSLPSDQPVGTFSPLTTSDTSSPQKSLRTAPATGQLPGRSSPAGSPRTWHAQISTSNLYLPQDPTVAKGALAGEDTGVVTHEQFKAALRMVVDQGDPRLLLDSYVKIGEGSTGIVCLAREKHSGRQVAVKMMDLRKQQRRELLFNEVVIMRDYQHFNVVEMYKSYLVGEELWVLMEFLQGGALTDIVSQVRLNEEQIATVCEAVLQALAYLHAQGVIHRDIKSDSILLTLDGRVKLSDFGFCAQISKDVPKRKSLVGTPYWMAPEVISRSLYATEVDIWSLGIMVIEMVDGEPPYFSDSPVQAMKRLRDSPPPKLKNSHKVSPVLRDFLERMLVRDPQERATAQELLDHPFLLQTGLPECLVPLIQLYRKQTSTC
Chain of MAPK3 (human) (P27361 whole entry, looked up): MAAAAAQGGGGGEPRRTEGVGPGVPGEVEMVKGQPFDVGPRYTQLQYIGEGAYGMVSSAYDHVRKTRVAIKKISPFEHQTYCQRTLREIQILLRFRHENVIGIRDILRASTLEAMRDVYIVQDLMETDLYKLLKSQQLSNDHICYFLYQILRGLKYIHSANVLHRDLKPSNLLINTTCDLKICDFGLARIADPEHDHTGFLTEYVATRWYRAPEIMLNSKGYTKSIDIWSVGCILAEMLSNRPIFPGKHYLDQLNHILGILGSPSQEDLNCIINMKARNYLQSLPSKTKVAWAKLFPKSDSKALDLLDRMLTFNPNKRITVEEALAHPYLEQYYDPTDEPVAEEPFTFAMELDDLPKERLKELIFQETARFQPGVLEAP
Chain of PKN2 (human) (Q16513 whole entry, looked up): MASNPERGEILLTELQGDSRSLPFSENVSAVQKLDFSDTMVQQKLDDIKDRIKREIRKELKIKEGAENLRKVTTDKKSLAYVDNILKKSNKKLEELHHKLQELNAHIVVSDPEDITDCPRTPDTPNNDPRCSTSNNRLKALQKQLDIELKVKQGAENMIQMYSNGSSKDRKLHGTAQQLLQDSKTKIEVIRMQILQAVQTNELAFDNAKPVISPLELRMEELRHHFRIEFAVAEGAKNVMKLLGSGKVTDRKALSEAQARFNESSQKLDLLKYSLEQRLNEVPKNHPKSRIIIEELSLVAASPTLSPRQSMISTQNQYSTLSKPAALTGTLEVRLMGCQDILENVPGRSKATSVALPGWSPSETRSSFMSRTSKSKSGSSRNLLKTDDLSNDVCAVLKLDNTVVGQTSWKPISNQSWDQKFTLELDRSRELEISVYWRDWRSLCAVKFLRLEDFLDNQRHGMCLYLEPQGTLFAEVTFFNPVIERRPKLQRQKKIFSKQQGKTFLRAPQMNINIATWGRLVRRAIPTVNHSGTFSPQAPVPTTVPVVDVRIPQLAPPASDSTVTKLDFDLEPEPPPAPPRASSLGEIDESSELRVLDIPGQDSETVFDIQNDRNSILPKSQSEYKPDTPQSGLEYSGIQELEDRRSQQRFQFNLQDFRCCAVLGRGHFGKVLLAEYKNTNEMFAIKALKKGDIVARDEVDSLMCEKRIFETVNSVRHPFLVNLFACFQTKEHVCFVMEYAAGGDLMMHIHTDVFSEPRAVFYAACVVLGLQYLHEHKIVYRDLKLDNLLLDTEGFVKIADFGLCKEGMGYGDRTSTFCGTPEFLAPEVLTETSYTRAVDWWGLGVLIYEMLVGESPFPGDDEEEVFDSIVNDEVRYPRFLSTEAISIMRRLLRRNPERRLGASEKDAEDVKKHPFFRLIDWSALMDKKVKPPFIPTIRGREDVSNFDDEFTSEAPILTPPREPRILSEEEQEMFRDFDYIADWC
Chain of SGK1 (human), O00141 [S422D] (O00141 whole entry S422D, looked up): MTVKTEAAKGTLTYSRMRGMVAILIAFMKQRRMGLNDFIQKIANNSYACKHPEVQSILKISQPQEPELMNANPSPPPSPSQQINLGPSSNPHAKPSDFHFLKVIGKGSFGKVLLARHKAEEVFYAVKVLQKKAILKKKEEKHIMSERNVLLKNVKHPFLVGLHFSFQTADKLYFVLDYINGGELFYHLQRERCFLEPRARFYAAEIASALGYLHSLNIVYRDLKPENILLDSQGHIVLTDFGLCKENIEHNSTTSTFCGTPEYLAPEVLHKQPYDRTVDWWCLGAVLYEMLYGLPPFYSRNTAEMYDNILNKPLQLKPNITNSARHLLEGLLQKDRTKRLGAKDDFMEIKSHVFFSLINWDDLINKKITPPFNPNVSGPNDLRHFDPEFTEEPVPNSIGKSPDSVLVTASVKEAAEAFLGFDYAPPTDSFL
Chain of MAPK14 (human) (Q16539 whole entry, looked up): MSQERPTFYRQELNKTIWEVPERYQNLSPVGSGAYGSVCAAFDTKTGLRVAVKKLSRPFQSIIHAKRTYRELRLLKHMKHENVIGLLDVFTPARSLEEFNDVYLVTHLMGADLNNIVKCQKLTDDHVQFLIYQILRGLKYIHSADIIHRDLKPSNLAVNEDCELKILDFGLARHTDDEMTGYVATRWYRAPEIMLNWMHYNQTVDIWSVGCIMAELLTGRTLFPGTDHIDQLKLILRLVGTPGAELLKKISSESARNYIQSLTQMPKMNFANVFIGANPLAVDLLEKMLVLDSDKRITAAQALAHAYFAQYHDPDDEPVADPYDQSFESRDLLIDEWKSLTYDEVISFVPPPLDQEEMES
Chain of MAPK12 (human) (P53778 whole entry, looked up): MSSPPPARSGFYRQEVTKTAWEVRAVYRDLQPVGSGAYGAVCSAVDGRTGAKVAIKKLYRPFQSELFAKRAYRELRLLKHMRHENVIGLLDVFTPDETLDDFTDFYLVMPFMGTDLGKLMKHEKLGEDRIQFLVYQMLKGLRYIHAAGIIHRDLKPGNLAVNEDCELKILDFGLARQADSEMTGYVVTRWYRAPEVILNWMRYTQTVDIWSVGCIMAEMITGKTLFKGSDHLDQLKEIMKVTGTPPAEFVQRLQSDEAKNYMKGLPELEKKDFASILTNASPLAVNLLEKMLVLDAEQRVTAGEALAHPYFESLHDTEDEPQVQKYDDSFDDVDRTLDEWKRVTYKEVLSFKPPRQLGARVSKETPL
Chain of CSNK1D (human) (P48730 whole entry, looked up): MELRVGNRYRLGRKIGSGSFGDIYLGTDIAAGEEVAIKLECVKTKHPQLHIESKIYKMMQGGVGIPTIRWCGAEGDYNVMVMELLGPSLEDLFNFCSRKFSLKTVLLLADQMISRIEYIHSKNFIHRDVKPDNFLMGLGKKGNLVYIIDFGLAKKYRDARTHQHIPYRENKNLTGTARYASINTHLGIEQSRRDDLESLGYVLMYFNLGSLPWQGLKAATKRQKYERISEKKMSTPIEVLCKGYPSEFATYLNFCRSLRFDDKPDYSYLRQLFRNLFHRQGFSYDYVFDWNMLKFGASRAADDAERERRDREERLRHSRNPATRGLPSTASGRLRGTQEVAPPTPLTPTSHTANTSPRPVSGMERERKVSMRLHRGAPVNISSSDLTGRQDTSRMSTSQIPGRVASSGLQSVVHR
Chain of NEK2 (human) (P51955 whole entry, looked up): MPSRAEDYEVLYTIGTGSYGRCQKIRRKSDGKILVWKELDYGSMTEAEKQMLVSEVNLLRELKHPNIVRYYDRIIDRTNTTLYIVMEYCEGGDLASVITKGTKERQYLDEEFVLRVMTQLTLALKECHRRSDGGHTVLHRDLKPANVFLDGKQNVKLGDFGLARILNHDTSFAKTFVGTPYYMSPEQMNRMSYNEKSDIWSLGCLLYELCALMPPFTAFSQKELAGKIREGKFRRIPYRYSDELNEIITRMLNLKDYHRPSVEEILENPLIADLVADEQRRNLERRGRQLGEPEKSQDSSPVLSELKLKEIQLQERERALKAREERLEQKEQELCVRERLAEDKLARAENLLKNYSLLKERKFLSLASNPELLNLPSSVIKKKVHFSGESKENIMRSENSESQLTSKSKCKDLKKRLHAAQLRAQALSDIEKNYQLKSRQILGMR
Chain of PAK4 (human) (O96013 whole entry, looked up): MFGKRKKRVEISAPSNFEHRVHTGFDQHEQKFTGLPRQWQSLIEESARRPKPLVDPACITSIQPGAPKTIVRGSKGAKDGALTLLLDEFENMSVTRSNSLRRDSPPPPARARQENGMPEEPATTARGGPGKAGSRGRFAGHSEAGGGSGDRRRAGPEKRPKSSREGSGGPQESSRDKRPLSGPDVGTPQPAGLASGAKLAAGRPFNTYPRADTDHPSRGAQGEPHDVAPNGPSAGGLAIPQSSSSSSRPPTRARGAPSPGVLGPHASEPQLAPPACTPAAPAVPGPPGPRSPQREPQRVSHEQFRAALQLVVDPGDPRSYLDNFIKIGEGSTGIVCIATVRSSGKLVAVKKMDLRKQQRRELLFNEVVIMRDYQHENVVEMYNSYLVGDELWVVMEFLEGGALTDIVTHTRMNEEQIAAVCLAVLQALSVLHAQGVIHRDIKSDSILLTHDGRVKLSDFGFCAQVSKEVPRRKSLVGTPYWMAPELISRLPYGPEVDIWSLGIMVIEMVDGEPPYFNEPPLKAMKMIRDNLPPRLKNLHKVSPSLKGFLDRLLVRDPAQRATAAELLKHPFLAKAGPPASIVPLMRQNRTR
Chain of NEK6 (human) (Q9HC98 whole entry, looked up): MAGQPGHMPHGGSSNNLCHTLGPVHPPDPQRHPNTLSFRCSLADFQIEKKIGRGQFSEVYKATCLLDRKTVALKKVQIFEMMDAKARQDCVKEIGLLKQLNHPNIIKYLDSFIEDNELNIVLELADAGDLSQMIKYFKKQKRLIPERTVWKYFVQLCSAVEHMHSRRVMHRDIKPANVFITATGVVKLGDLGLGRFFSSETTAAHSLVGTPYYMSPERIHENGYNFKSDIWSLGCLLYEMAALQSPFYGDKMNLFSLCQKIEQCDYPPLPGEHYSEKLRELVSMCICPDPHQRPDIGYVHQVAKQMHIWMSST

C/C(=C1/C(=O)Nc2ccc(NC(N)=O)cc21)c1ccc[nH]1
residual activity ([1]; compound 0.001 µM): 98%
residual activity ([1]; compound 0.01 µM): 86%
residual activity ([2]; compound 0.001 µM): 94%
residual activity ([2]; compound 0.01 µM): 94%
residual activity ([2]; compound 0.1 µM): 89%
residual activity ([3]; compound 0.001 µM): 83%
residual activity ([3]; compound 0.01 µM): 87%
residual activity ([3]; compound 0.1 µM): 80%
residual activity ([4]; compound 0.001 µM): 85%
residual activity ([4]; compound 0.01 µM): 49%
residual activity ([4]; compound 0.1 µM): 7%
residual activity ([5]; compound 0.001 µM): 89%
residual activity ([5]; compound 0.01 µM): 87%
residual activity ([5]; compound 0.1 µM): 82%
residual activity ([6]; compound 0.001 µM): 101%
residual activity ([6]; compound 0.01 µM): 90%
residual activity ([6]; compound 0.1 µM): 60%
residual activity ([7]; compound 0.001 µM): 86%
residual activity ([7]; compound 0.01 µM): 82%
residual activity ([7]; compound 0.1 µM): 72%
residual activity [8]: 94%
residual activity ([9]; compound 0.001 µM): 85%
residual activity ([9]; compound 0.01 µM): 84%
residual activity ([9]; compound 0.1 µM): 69%
residual activity ([10]; compound 0.001 µM): 89%
residual activity ([10]; compound 0.1 µM): 21%
residual activity ([11]; compound 0.001 µM): 84%
residual activity ([11]; compound 0.1 µM): 78%
residual activity ([12]; compound 0.001 µM): 96%
residual activity ([12]; compound 0.01 µM): 73%
residual activity ([12]; compound 0.1 µM): 25%
residual activity ([13]; compound 0.001 µM): 98%
residual activity ([13]; compound 0.01 µM): 86%
residual activity ([13]; compound 0.1 µM): 58%
residual activity ([14]; compound 0.001 µM): 110%
residual activity ([14]; compound 0.01 µM): 91%
residual activity ([14]; compound 0.1 µM): 67%
residual activity ([15]; compound 0.001 µM): 67%
residual activity ([15]; compound 0.01 µM): 61%
residual activity ([15]; compound 0.1 µM): 36%
residual activity ([16]; compound 0.001 µM): 87%
residual activity ([16]; compound 0.01 µM): 80%
residual activity ([17]; compound 0.001 µM): 97%
residual activity ([17]; compound 0.01 µM): 89%
residual activity ([17]; compound 0.1 µM): 82%
residual activity ([18]; compound 0.001 µM): 92%
residual activity ([18]; compound 0.01 µM): 92%
residual activity ([18]; compound 0.1 µM): 86%
residual activity ([19]; compound 0.001 µM): 82%
residual activity ([19]; compound 0.01 µM): 65%
residual activity ([19]; compound 0.1 µM): 19%
residual activity ([20]; compound 0.001 µM): 79%
residual activity ([20]; compound 0.01 µM): 82%
residual activity ([21]; compound 0.001 µM): 97%
residual activity ([21]; compound 0.01 µM): 102%
residual activity ([21]; compound 0.1 µM): 88%
residual activity ([22]; compound 0.001 µM): 98%
residual activity ([22]; compound 0.01 µM): 96%
residual activity ([22]; compound 0.1 µM): 93%
residual activity ([23]; compound 0.001 µM): 87%
residual activity ([23]; compound 0.01 µM): 86%
residual activity ([23]; compound 0.1 µM): 84%
residual activity ([24]; compound 0.001 µM): 86%
residual activity ([24]; compound 0.01 µM): 84%
residual activity ([24]; compound 0.1 µM): 82%
residual activity ([25]; compound 0.001 µM): 80%
residual activity ([25]; compound 0.01 µM): 85%
residual activity ([25]; compound 0.1 µM): 76%
residual activity ([26]; compound 0.01 µM): 92%
residual activity ([26]; compound 0.1 µM): 65%
